Measurements: patent publication US20260021088A1, “METHODS OF USING ANTI-CD79b IMMUNOCONJUGATES TO TREAT FOLLICULAR LYMPHOMA” (Genentech, Inc., priority 2019, published 2026)

Columns and labels:
[1] = tested on: patients with relapsed or refractory (R/R) FL; details: for Dose reductions: n = 56
Source text: This Phase Ib/II, open label, multicenter, non-randomized, dose-escalation study evaluated the safety, efficacy, and pharmacokinetics of induction treatment consisting of obinutuzumab (GA101 or G) in combination with polatuzumab vedotin (anti-CD79b(huMA79b.v28)-MC-vc-PAB-MMAE ADC (DCDS4501A) or Pola) and lenalidomide (Len) (G+Pola+Len) in patients with relapsed or refractory (R/R) FL, followed by post induction treatment with obinutuzumab in combination with lenalidomide. The study included an initial dose-escalation phase, followed by an expansion phase during which polatuzumab vedotin and lenalidomide were given at their recommended Phase II doses (RP2Ds).
The primary efficacy endpoint was based on IRC assessment of response. Patients were monitored closely for adverse events throughout the study and for at least 90 days after the last dose of study treatment. To characterize the pharmacokinetic (PK) properties of obinutuzumab, polatuzumab vedotin, and lenalidomide, blood samples were obtained at various timepoints before and during study treatment administration
Safety assessments consist of monitoring and recording adverse events, including serious adverse events and non-serious adverse events of special interest, performing protocol-specified safety laboratory assessments, measuring protocol-specified vital signs, and conducting other protocol-specified tests that were deemed critical to the safety evaluation of the study.
The safety analyses include all treated patients (i.e., patients who received any amount of study treatment). Safety is assessed through summaries of adverse events and changes from baseline in laboratory test results, shift-tables of ECGs findings, and vital signs. All adverse events occurring on or after first study treatment are summarized by mapped term, appropriate thesaurus levels, and NCI CTCAE, Version 4.0 grade. All serious adverse events, adverse events of special interest, and selected adverse events are summarized and listed. Deaths reported during the treatment period and during post-treatment follow-up are listed and summarized.
Adverse Events: NCI CTCAE, Version 4.0 is used for assessing adverse event severity. All adverse events are reported until 90 days after the last dose of study treatment. After this period, the investigator reports any serious adverse events that are believed to be related to prior study treatment and events of second malignancies for patients who received obinutuzumab. Grade 3 and 4 infections (both related and unrelated) are reported until up to 2 years after the last dose of obinutuzumab.
Infusion-Related Reactions: Adverse events that occur during or within 24 hours after the end of study treatment infusion and are judged to be related to infusion of any of the study treatment components are captured as a diagnosis (e.g., “infusion-related reaction”). If a patient experiences both a local and systemic reaction to the same dose of study treatment, each reaction is recorded separately, with signs and symptoms also recorded separately.

[2] = tested on: patients with relapsed or refractory (R/R) FL; test: Phase Ib/II study, dose-escalation phase: dose-limiting toxicities and recommended Phase II dose
Source text: The purpose of the FL dose-escalation phase was to identify the RP2D for polatuzumab vedotin and the RP2D for lenalidomide when combined with a fixed dose of obinutuzumab as induction treatment.
Patients were closely monitored for adverse events during the dose limiting toxicity (DLT) assessment window, defined as the first treatment cycle (from Day 1 of Cycle 1 to Day 1 of Cycle 2). Patients experiencing a DLT during the DLT assessment period continued receiving study treatment once the event resolved if determined it was safe to continue treatment and there was potential for clinical benefit. Patients who discontinued from the study prior to completing the DLT assessment window for reasons other than a DLT were considered non-evaluable for dose-escalation decisions and RP2D assessments and were replaced by an additional patient at that same dose level. Patients who missed one or more doses of polatuzumab vedotin or obinutuzumab or five consecutive daily doses of lenalidomide during the DLT assessment window for reasons other than a DLT were also replaced and considered non-evaluable for dose-escalation decisions. Patients who received supportive care during the DLT assessment window that could confound the evaluation of DLTs were replaced at the discretion of the Medical Monitor.
A standard 3+3 dose-escalation schema was used. […]

[3] = Example 1 interim, n = 52, given as G+Pola+Len

Row | Compound | AEs leading to lenalidomide dose interruptions [1, 3] [%] | AEs leading to lenalidomide dose reduction [1, 3] [%] | Patients who required lenalidomide dose reductions ([1]; Example 2, during maintenance) | Recommended Phase II dose (RP2D) ([2]; combined with polatuzumab vedotin and fixed dose of 1000 mg obinutuzumab) [mg] | Dose reductions ([1]; Example 2, given as G+Pola+Len) | Recommended Phase II dose (RP2D) ([2]; combined with lenalidomide and fixed dose of 1000 mg obinutuzumab) [mg/kg]
1 | Nc1cccc2c1CN(C1CCC(=O)NC1=O)C2=O (stereo not shown) [lenalidomide, 3-(4-amino-1-oxo-2,3-dihydro-1H-isoindol-2-yl)piperidine-2,6-dione] | 52 | 31 | Two | 20 |  | 
2 | obinutuzumab: anti-CD20 antibody; afucosylated glyco-engineered humanized B-Ly1 antibody |  |  |  |  | no dose reductions | 
3 | polatuzumab vedotin |  |  |  |  | no dose reductions | 1.4
